Measured values from patent publication US20240368104A1, “Novel Dialkoxynaphtho[2,3-C]Furan-1(3H)-One Derivatives and Pharmaceutical Composition For Preventing or Treating Respiratory Disease or SARS-COV-2 Infection Disease, Comprising Same” (priority 2021, published 2024).
Where a name gives a salt, the structure may show the parent alone. Read-outs that look alike come from different tables or passages of the source.

What was measured:
in vitro = details: African green monkey
SARS-COV-2 = test: microbe, parasite or virus in culture; assay type: cell-based; set-up: SI (Selectivity Index, CC50/IC50): unit not given here; details: for SI (Selectivity Index, CC50/IC50): SARS-COV-2, values >50 assumed to be 50; for IC50: read-out: SARS-COV-2 inhibition (IC50)
[1] = Severe acute respiratory syndrome coronavirus 2, Vero, 24 h
[2] = Severe acute respiratory syndrome coronavirus 2, Vero cells, 24 hours infection

SMILES | CC50 (in vitro) [µM] | SI (Selectivity Index, CC50/IC50) (SARS-COV-2) | IC50 (SARS-COV-2; [1]) [µM] | IC50 (SARS-COV-2; [2]) [µM]
COc1cc2cc3c(c(-c4cnc(N(C)CCN5CCOCC5)nc4)c2cc1OC)C(=O)OC3 [Example 111, 6,7-dimethoxy-9-(2-(methyl(2-morpholinoethyl)amino)pyrimidin-5-yl)naphtho[2,3-c]furan-1(3H)-one hydrochloride] | > 50 | 2.37 | 21.1 | –
COc1cc2cc3c(c(-c4cnc(N(C)CC5CC5)nc4)c2cc1OC)C(=O)OC3 [Example 68, 9-(2-((cyclopropylmethyl)(methyl)amino)pyrimidin-5-yl)-6,7-dimethoxynaphtho[2,3-c]furan-1(3H)-one] | > 50 | 270.89 | – | 0.18
COc1cc2cc3c(c(-c4ccc(N5CCCC(c6cccc(C)c6)C5)nc4)c2cc1OC)C(=O)OC3 (centres unmarked) [Example 202, 6,7-dimethoxy-9-(6-(3-(m-tolyl)piperidin-1-yl)pyridin-3-yl)naphtho[2,3-c]furan-1(3H)-one] | 38.4 | 38.01 | – | 1.01
COc1cc2cc3c(c(-c4ccc(N(C)C)cc4)c2cc1OC)C(=O)OC3.Cl [Example 247, 9-(4-(dimethylamino)phenyl)-6,7-dimethoxynaphtho[2,3-c]furan-1(3H)-one] | > 50 | 344.5 | 0.15 | –
COc1cc2cc3c(c(-c4cnc(N5CCCC(O)C5)nc4)c2cc1OC)C(=O)OC3.Cl (centres unmarked) [Example 80, 9-(2-(3-hydroxyperidin-1-ylpyrimidin-5-yl)-6,7-dimethoxynaphtho[2,3-c]furan-1(3H)-one hydrochloride] | > 50 | – | 11.9 | –
COc1cc2cc3c(c(-c4ccc5nc(C)cc(O)c5c4)c2cc1OC)C(=O)OC3 [Example 147, 9-(4-hydroxy-2-methylquinolin-6-yl)-6,7-dimethoxynaphtho[2,3-c]furan-1(3H)-one] | > 50 | 1.0 | – | > 50
COc1cc2cc3c(c(-c4cnc(NC5CCCC5)nc4)c2cc1OC)C(=O)OC3.Cl [Example 91, 9-(2-(cyclopentylamino)pyrimidin-5-yl)-6,7-dimethoxynaphtho[2,3-c]furan-1(3H)-one hydrochloride] | > 50 | 5.15 | 9.7 | –
COc1cc2cc3c(c(-c4ccc(N5CCSCC5)nc4)c2cc1OC)C(=O)OC3 [Example 10, 6,7-dimethoxy-9-(6-thiomorpholinopyridin-3-yl)naphtho[2,3-c]furan-1(3H)-one] | > 50 | 91.58 | – | 0.55
COc1cc2cc3c(c(-c4ccc5c(N6CCNCC6)ccnc5c4)c2cc1OC)C(=O)OC3 [Example 152, 6,7-dimethoxy-9-(4-(piperazin-1-yl)quinolin-7-yl)naphtho[2,3-c]furan-1(3H)-one] | > 50 | 2.10 | – | 23.8
COc1cc2cc3c(c(-c4cnc(N5CCC(C)CC5)nc4)c2cc1OC)C(=O)OC3 [Example 107, 6,7-dimethoxy-9-(2-(4-methylpiperidin-1-yl)pyrimidin-5-yl)naphtho[2,3-c]furan-(3H)-one hydrochloride] | > 50 | 35.49 | – | 1.41
COc1cc2cc3c(c(-c4ccc(N(C)CC5CC5)nc4)c2cc1OC)C(=O)OC3.Cl [Example 183, 9-(6-((cyclopropylmethyl)(methyl)amino)pyridin-3-yl)-6,7-dimethoxynaphtho[2,3-c]furan-1(3H)-one] | > 50 | 124.83 | 0.4 | –
COc1cc2cc3c(c(-c4cc(C)nc5c(C(F)(F)F)cccc45)c2cc1OC)C(=O)OC3 [Example 136, 6,7-dimethoxy-9-(2-methyl-8-(trifluoromethyl)quinolin-4-yl)naphtho[2,3-c]furan-1(3H)-one] | > 50 | 1.0 | – | > 50
COc1cc2cc3c(c(-c4cnc(N5CCC[C@@H]5CO)nc4)c2cc1OC)C(=O)OC3.Cl [Example 82, (R)-9-(2-(2-(hydroxymethyl)pyrrolidin-1-yl)pyrimidin-5-yl)-6,7-dimethoxynaphtho[2,3-c]furan-1(3H)-one hydrochloride] | > 50 | 3.93 | 12.7 | –
COc1cc2cc3c(c(-c4cnc(N5CCC[C@@H]5CN5CCCC5)nc4)c2cc1OC)C(=O)OC3 [Example 110, (R)-6,7-dimethoxy-9-(2-(2-(pyrrolidin-1-ylmethyl)pyrrolidin-1-yl)pyrimidin-5-yl)naphtho[2,3-c]furan-1(3H)-one] | > 50 | 5.78 | – | 8.66
COc1cc2cc3c(c(-c4ccc(N(C)c5ccc(S)cc5)nc4)c2cc1OC)C(=O)OC3.Cl [Example 239, 9-(6-((4-mercaptophenyl)(methyl)amino)pyridin-3-yl)-6,7-dimethoxynaphtho[2,3-c]furan-1(3H)-one] | > 50 | 1.00 | > 50 | –
CCN(CCc1cn(CC)c2ccccc12)c1ccc(-c2c3c(cc4cc(OC)c(OC)cc24)COC3=O)cn1 [Example 197, 9-(6-(ethyl(2-(1-ethyl-1H-indol-3-yl)ethyl)amino)pyridin-3-yl)-6,7-dimethoxynaphtho[2,3-c]furan-1(3H)-one] | > 50 | 2.88 | – | 17.4
COc1cc2cc3c(c(-c4cc5c(cc4OC(=O)C(N)C(C)C)OCO5)c2cc1OC)C(=O)OC3.Cl (stereo in doubt) [Example 269, 6-(6,7-dimethoxy-3-oxo-1,3-dihydronaphtho[2,3-c]furan-4-yl)benzo[d][1,3]dioxol-5-yl L-valinate hydrochloride] | > 50 | 94.66 | 0.53 | –
CCN(c1ccc(-c2c3c(cc4cc(OC)c(OC)cc24)COC3=O)cn1)C1Cc2ccccc2C1 [Example 195, 9-(6-((2,3-dihydro-1H-indan-2-yl)(ethyl)amino)pyridin-3-yl)-6,7-dimethoxynaphtho[2,3-c]furan-1(3H)-one] | > 50 | 9.50 | – | 5.27
COc1ccc2c(-c3c4c(cc5cc(OC)c(OC)cc35)COC4=O)cc(C)nc2c1 [Example 141, 6,7-dimethoxy-9-(7-methoxy-2-methylquinolin-4-yl)naphtho[2,3-c]furan-1(3H)-one] | > 50 | 2.07 | – | 24.2
COc1cc2cc(CO)c(C(=O)[O-])c(-c3cc4c(cc3O)OCO4)c2cc1OC.[Na+] [Example 212, 1-(6-hydroxybenzo[d][1,3]dioxol-5-yl)-3-(hydroxymethyl)-6,7-dimethoxy-2-naphthoate sodium (I)] | > 50 | 2.81 | – | 17.8
COc1cc2cc3c(c(-c4cnc(N)cn4)c2cc1OC)C(=O)OC3 [Example 30, 9-(5-aminopyrazin-2-yl)-6,7-dimethoxynaphtho[2,3-c]furan-1(3H)-one] | > 50 | 1.00 | – | > 50
COc1cc2cc3c(c(-c4ccc(N(C)CC(C)C)nc4)c2cc1OC)C(=O)OC3 [Example 181, 9-(6-(isobutyl(methyl)amino)pyridin-3-yl)-6,7-dimethoxynaphtho[2,3-c]furan-1(3H)-one] | > 50 | 53.67 | – | 0.93
COc1cc2c(OC)c3c(c(-c4ccc(N5CCC6(CC5)OCCO6)nc4)c2cc1OC)COC3=O [Example 260, 4-(6-(1,4-dioxa-8-azaspiro[4.5]decan-8-yl)pyridin-3-yl)-6,7,9-trimethoxynaphtho[2,3-c]furan-1(3H)-one] | > 50 | 1.00 | – | > 50
COc1cc2cc3c(c(-c4cnc(N5CCC[C@H]5C(=O)O)nc4)c2cc1OC)C(=O)OC3 [Example 61, (5-(6,7-dimethoxy-3-oxo-1,3-dihydronaphtho[2,3-c]furan-4-yl)pyrimidin-2-yl)-L-proline] | > 50 | 1.00 | – | > 50
COc1cc2cc3c(c(-c4ccc(N5CCCC5)cc4)c2cc1OC)C(=O)OC3 [Example 251, 6,7-dimethoxy-9-(4-(pyrrolidin-1-yl)phenyl)naphtho[2,3-c]furan-1(3H)-one] | > 50 | 119.39 | – | 0.42
COc1cc2cc3c(c(-c4ccc(N(C)Cc5cccs5)nc4)c2cc1OC)C(=O)OC3 [Example 198, 6,7-dimethoxy-9-(6-(methyl(thiophen-2-ylmethyl)amino)pyridin-3-yl)naphtho[2,3-c]furan-1(3H)-one] | > 50 | 48.47 | – | 1.03
COc1cc2cc3c(c(-c4cccc(N5CCCC5)c4)c2cc1OC)C(=O)OC3.Cl [Example 252, 6,7-dimethoxy-9-(3-(pyrrolidin-1-yl)phenyl)naphtho[2,3-c]furan-1(3H)-one] | > 50 | 1 | > 50 | –
CC[C@@H]1CCCCN1c1ncc(-c2c3c(cc4cc(OC)c(OC)cc24)COC3=O)cn1 [Example 113, (R)-9-(2-(2-ethylpiperidin-1-yl)pyrimidin-5-yl)-6,7-dimethoxynaphtho[2,3-c]furan-1(3H)-one] | > 50 | 50.52 | – | 0.99
COC[C@H]1CCCN1c1ncc(-c2c3c(cc4cc(OC)c(OC)cc24)COC3=O)cn1 [Example 102, (R)-6,7-dimethoxy-9-(2-(2-(methoxymethyl)pyrrolidin-1-yl)pyrimidin-5-yl)naphtho[2,3-c]furan-1(3H)-one hydrochloride] | > 50 | 30.41 | 1.64 | –
